Read-outs that look alike come from different tables or passages of the source.
What was measured:
[1] = system: asthma patients; conditions: comparators, cited from earlier work
[2] = developed as an antidepressant; e.g. pyrosis, nausea and emesis; cited from earlier work
[3] = system: patients with mild/moderate asthma; test: Cilomalast/low dose inhaled corticosteroid (ICS) dose-ranging study; format: in vivo, human
Text: This was a phase IIB, randomised, placebo-controlled, dose-ranging study with a one-week single-blind placebo run-in, a 6-week double-blind treatment phase and a one-week follow-up phase in patients with mild/moderate asthma.
Study population: Male or female patients aged between 18 and 70 years, with mild to moderate asthma, who were not adequately controlled on low doses of inhaled corticosteroids (no greater than 500 mcg beclomethasone dipropionate/day or equivalent) were eligible. Patients were required to have a screening FEV1 of >50% and <80% predicted for height, age, sex and race and a 12% or greater reversibility after beta-2 agonist administration. Patients had to have a summary symptom score of 6 or more on 4 out of 7 days preceding the baseline visit to be randomised. The sample size was 300 evaluable patients.
cilomalast was dosed at 5 mg, 10 mg 15 mg twice daily for 6 weeks.
Subjects were on a median of 500 mcg of beclometbasone equivalent although the mean dose of ICS was 652 mcg.
Primary endpoint: change from baseline to endpoint in trough clinic expiratory volume in 1 second (FEV1), changes in clinic FEV1 every week and over a 4 hour period following first dose of double-blind medication.
The primary efficacy measure was defined as the change from baseline to endpoint in trough clinic forced expiratory volume in 1 second (FEV1). Changes in clinic FEV1 were also analysed at each week of the double-blind treatment phase and over a 4-hour period immediately following the first dose of double-blind medication. Secondary efficacy variables were use of inhaled/nebulised beta-2 agonist and overnight asthma symptoms. Tertiary efficacy variables were forced vital capacity (FVC), clinic peak expiratory flow rate (PEFR), forced expiratory flow at 25-75% (FEF25-75) and 75% (FEF75), domiciliary PEFR variability, domiciliary PEFR (morning and evening), summary symptom score (a composite score of overnight, morning and overall daytime asthma), morning asthma, overall daytime asthma, inhaled corticosteroid use, cough, wheeze, breathlessness/chest tightness, asthma exacerbation rates and global assessments by the physician and the patient.

[4] = system: patients with mild/moderate asthma on ≧800 mcg of beclomethasone; test: Cilomalast/high dose inhaled corticosteroid (ICS) study; format: in vivo, human
Procedure: R, DB, PC, DR in patients with mild/moderate asthma on ≧800 mcg of beclomethasone
cilomalast® doses were 5, 10 and 15 mg twice daily for 4 weeks.
Primary endpoint: trough clinic FEV1.
Secondary endpoints: morning PEFR, symptoms, PEFR variability, evening PEFR, clinic PEFR, FEF25-75, FEF75, rescue medication used.

[5] = system: asthma patients; test: Allergen challenge studies (LAR); format: in vivo, human; conditions: Ariflo 15 mg bd
Text: Legend: Data on cilomalast was taken from the protocol analysis in asthma patients on <652 mcg of ICS. Data on montelukast (MT), budesonide (BDP) and both was taken from a single study in the Singulair SBA that examined the effect of Singulair relative to inhaled […] corticosteroids.

O=C(Nc1cccc2c(=O)cc(-c3nnn[nH]3)oc12)c1ccc(OCCCCc2ccccc2)cc1 [Ultair]
% Max fall LAR (treatment effect) ([1]; ICS = 800 mcg budesonide): 10.7% | % Protection max fall LAR ([1]; ICS = 800 mcg budesonide): 30.8% | % AUC of LAR (treatment effect) [1]: 42.4% | % Protection AUC LAR [1]: 42.6%

COc1ccc(C2CNC(=O)C2)cc1OC1CCCC1 (stereo not shown) [rolipram]
side effects in clinical studies [2]: produces gastrointestinal effects

COc1ccc([C@]2(C#N)CC[C@@H](C(=O)O)CC2)cc1OC1CCCC1 [cilomalast, cis 4-cyano-4-(3-cyclopentyloxy-4-methoxyphenyl)cyclohexan-1-carboxylic acid]
4 hour FEV1, domiciliary PEFR, FEF25-75, physician and patient global assessment scores ([3]; 15 mg BID): Corroborating support | improvement in trough FEV1 at endpoint, ITT analysis, vs placebo ([3]; 15 mg BID, 6 weeks, on low dose ICS, p=0.062, no statistical improvement): 0.16 L | improvement in trough FEV1, excluding patients on ICS doses >500 mcg of beclamethasone ([3]; 15 mg BID, p=0.033, significant): 0.21 L | dose ordering of response for trough FEV1 at endpoint, ITT analysis ([3]; 5, 10, 15 mg twice daily for 6 weeks): dose-ordered | comparison with Singulair when added to low dose ICS ([3]; placebo group also improved in the cilomalast study): outperformed Singulair | 4 hour clinic FEV1, clinic FVC, PEFR ([4]; 10 mg BID): numerically superior results | improvement in trough FEV1, repeated measures analysis, patients on <800 mcg of ICS excluded ([4]; 10 mg BID, p=0.009): 0.16 L | trough concentrations ([4]; 5, 10, 15 mg twice daily): dose proportional | dose ordering for the primary endpoint (trough clinic FEV1) ([4]; 5, 10, 15 mg twice daily, 4 weeks): No dose ordering | change in clinic trough FEV1, ITT analysis ([4]; any dose group (5, 10, 15 mg twice daily, 4 weeks)): No statistically significant change | % AUC of LAR (treatment effect) [5]: 3.5% | % Max fall LAR (treatment effect) [5]: 1.3% | % Protection AUC LAR [5]: NONE | % Protection max fall LAR [5]: NONE

Source: patent US20040214805A1, “Method and compositions for treating pulmonary diseases” (SmithKline Beecham Corporation, priority 1999, published 2004)
